From US10561638B2, “Methods for treating dependence” (Biotie Therapies, Inc., priority 2007, dated 2020)

Experiments:
[1] = Plasma and tissue compound levels in dogs; assay type: in vivo, beagle dogs
Protocol: Male Beagle dogs (Marshall farms, North Rose, N.Y.) weighing between 9-16 kg were used in the study. The animals were allowed water ad libitum and given food once daily at ˜10.00 AM. Animals were randomly assigned to one of the following treatment groups (n=8/group): placebo (empty capsule), or nepicastat at 2 mg/kg b.i.d (4 mg/kg/day). Each animal received 2 doses daily, morning and afternoon (8-10 hours apart). Daily blood samples (10 ml) were drawn 6 h after the AM dose for measurement of plasma levels of nepicastat and catecholamines. The blood was collected in tubes containing heparin and glutathione and centrifuged at −4° C. within 1 h of collection. The plasma was separated and divided into two samples, one for the measurement of plasma catecholamines and the other for analysis of nepicastat.
Plasma norepinephrine (NE), dopamine (DA) and epinephrine (EPI) were analyzed by HPLC using electrochemical detection. Plasma concentration of nepicastat was determined by HPLC using electrochemical detection.
Thirty-two male beagle dogs, weighing 10-12 kg, were randomly assigned to one of the following 4 treatment groups (n=8 per group): nepicastat at 0 mg/kg/day (placebo), 10 mg/kg/day (5 mg/kg b.i.d.), 30 mg/kg (15 mg/kg b.i.d.), or 60 mg/kg/day (30 mg/kg b.i.d.). Dog numbers 1-16 were assigned as dose group A and dog numbers 17-32 as dose group B. The terminal surgery for tissue harvest was performed over 2 days with 16 animals studied per day. Two or 3 days before the first compound administration each dog was weighed and skin regions overlying both cephalic, saphenous and jugular veins were shaved. Dosing consisted of oral administration of one capsule with the second given 8-10 hr later. Dogs were dosed as scheduled on days 1-3. On day 4, prior to the AM dose, 3 ml of blood were obtained from a jugular vein for determination of baseline plasma compound levels. The dog was then administered the AM dose, and at 1, 2, 4 and 8 hr following the dose additional 3 ml blood samples were collected for determination of plasma compound levels. […]

[2] = system: plasma dopamine/norepinephrine; test: Plasma dopamine/norepinephrine in congestive heart failure patients; assay type: in vivo, human
Protocol: In studies of congestive heart failure patients, changes in plasma dopamine levels, norepinephrine levels, and dopamine/norepinephrine ratios after treatment with nepicastat in a 10 day study were determined.
In studies of congestive heart failure patients, plasma dopamine levels, norepinephrine levels, and dopamine/norepinephrine ratios and changes of the levels and the ratios after treatment with nepicastat in a 30 day study were determined.

[3] = system: blood pressure responses to norepinephrine, isoproterenol and acetylcholine; test: Responses to autonomic agents in anesthetized, instrumented dogs; assay type: in vivo, beagle dogs; conditions: single intraduodenal dose of 60 mg/kg
Protocol: Beagle dogs were administered single intraduodenal doses of 0 (vehicle) or 60 mg/kg of nepicastat through an intraduodenal cannula. The vehicle-control group consisted of 1 male and 1 female, and the nepicastat-treatment group consisted of 2 males and 2 females. Each animal was surgically instrumented while anesthetized with isoflurane gas. Before dosing with test formulation, the average blood pressure responses to intravenous doses of autonomic agents, norepinephrine (3 μg/kg), isoproterenol (0.3 μg/kg), and acetylcholine (10 μg/kg), were evaluated. A single bolus dose of test formulation was then administered to each animal and the blood pressure responses to the autonomic agents were evaluated approximately 1, 2, and 3 hours after dosing. At the completion of the experiment, each dog was euthanatized and removed from the study. […]
Systolic, diastolic, and mean aortic blood pressures were evaluated just before administration (baseline) and at the time of peak response to each agent (maximum change from baseline). Systolic, diastolic, and mean aortic blood pressures, and blood pH, PCO2, and PO2 were evaluated before dosing and approximately 50, 110, and 170 minutes after dosing with test formulation. […]

[4] = Pilot observation studies in rats, acute and repeated oral administration
Protocol: Similarly, in a separate study, physostigmine (1, 3, 10 or 30 mg/kg p.o.) or vehicle were administered acutely to groups of 8 rats.
In pilot studies of repeated administration, nepicastat (100 mg/kg p.o.) or vehicle was administered twice daily (06:00 and 18:00 h) for 10 days (once on day 11) to groups of 8 rats. The weights of the animals were monitored throughout the study and, on day 5, the animals were observed ‘blind’ by an independent observer in order to assess any overt behavioural/physiological effects following repeated administration. In a separate study, groups of 8 rats received vehicle or physostigmine (0.3, 1, 3 or 10 mg/kg p.o.) using the same dosing schedule. The weights of the animals were monitored throughout the study.

Cl.NCc1c[nH]c(=S)n1[C@H]1CCc2c(F)cc(F)cc2C1 [nepicastat, (S)-5-Aminomethyl-1-(5,7-difluoro-1,2,3,4-tetrahydronaphth-2-yl)-2,3-dihydro-2-thioxo-1H-imidazole hydrochloride]
time of peak plasma levels of the drug ([1]; 2 mg/kg bid, sampled 6 h after AM dose): 2 days post-dose | dose proportionality of nepicastat concentration in plasma and tissue ([1]; 10, 30, 60 mg/kg/day, Day 4 and Day 5): dose-proportional | levels of nepicastat in tissues vs plasma ([1]; Day 5, all tissues examined): higher than those in plasma | dopamine/norepinephrine levels ([2]; 10 day study): increased dopamine/norepinephrine levels | dopamine/norepinephrine levels ([2]; 30 day study): increased dopamine/norepinephrine levels | predose vs postdose blood pressure responses to autonomic agents [3]: No treatment-related differences | overt effects of repeated administration ([4]; nepicastat 100 mg/kg p.o. twice daily): no overt effects | irritability when handled ([4]; nepicastat 100 mg/kg p.o. twice daily, 11 days): more irritable than controls | mean loss in body weight ([4]; nepicastat 100 mg/kg p.o. twice daily, after 11 days): 28 g | overt behavioural/physiological changes ([4]; nepicastat 30 or 100 mg/kg p.o. acutely): did not induce any overt behavioural/physiological changes
